Reference: patent US8003627B2, “Urokinase inhibitors” (Universiteit Antwerpen, priority 2005, dated 2011)
Read-outs that look alike come from different tables or passages of the source.

What was measured:
tPA = tPA (Homo sapiens, UniProt P00750); experiment: Selectivity: tPA inhibition, chromogenic substrate S-2288; type: biochemical; settings: 1.25 mM substrate, Tris pH 8.3
Protocol: (§1) The IC50 values for plasmin, tPA, thrombin and FXa were determined in the same way as for uPA. […] FX is activated with Russel's Viper Venom.
(§2) Approximately 5 mU of enzyme, and 145 μl of buffer. For tPA and thrombin Tris buffer, pH 8.3, for FXa, Tris buffer pH 8.3 with 2.5 mM CaCl2, for plasmin Tris buffer pH 7.4, and for trypsin Tris buffer pH 8.2 was used. The selectivity index was calculated as (IC50 Enzyme X)/IC50 uPA, where X is tPA, thrombin, plasmin or FXa.

plasmin = target: T1, plasmin (Homo sapiens, UniProt P00747); experiment: Selectivity: plasmin inhibition, chromogenic substrate S-2366; type: biochemical
T1 construct: uPA mediates the proteolytic cleavage of plasminogen to give plasmin
T1 sequence (P00747 581-810 limits assumed, species assumed): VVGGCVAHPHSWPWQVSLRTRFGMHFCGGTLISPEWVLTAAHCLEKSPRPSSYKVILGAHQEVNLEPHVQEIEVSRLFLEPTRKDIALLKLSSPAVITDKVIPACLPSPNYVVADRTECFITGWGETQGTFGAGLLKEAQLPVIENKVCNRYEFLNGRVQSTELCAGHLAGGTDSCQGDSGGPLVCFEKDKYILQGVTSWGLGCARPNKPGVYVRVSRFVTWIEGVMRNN
T1 sequence (P00747 97-580 partner limits assumed, species assumed): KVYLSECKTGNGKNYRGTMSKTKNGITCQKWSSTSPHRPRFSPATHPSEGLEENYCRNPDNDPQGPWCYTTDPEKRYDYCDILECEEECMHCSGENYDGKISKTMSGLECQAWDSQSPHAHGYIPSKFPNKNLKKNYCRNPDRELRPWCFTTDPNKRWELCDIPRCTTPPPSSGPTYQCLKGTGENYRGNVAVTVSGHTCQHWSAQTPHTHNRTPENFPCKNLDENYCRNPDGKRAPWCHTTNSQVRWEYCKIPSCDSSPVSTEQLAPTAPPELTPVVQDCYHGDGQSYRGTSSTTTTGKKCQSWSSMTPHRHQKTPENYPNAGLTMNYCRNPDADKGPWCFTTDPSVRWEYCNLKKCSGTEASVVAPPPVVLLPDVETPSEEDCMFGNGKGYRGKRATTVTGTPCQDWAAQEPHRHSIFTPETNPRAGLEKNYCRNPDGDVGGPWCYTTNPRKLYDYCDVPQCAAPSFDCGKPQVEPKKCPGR
Protocol: as §1, §2

thrombin = thrombin (Homo sapiens, UniProt P00734); experiment: Selectivity: thrombin inhibition, chromogenic substrate S-2366; type: biochemical
Protocol: as §1, §2

uPA [1] = target: T2, uPA (Homo sapiens, UniProt P00749); experiment: biochemical; type: biochemical; set-up: purchased Sigma-Aldrich
Protocol: The substrate was obtained from Chromogenix. The human enzyme was obtained from Sigma-Aldrich, the mouse uPA was obtained from Molecular Innovations.Inc (USA). […] A 50 mM Tris buffer, pH 8.8, was used. […] Activity measurements were routinely performed in duplicate. […] IC50 values were obtained by fitting the data with the 4 parameter logistics equation using Grafit 5. v=(vrange)/(1+exp(s*ln(abs(I0/IC50))))+back s: slope factor back: background v: rate I0: inhibitor concentration range: the fitted uninhibited value minus the background.
The equation assumes that y falls with increasing x.
(§3) Inhibitor stock solutions were prepared in DMSO and stored at −20° C. […] For a simple pseudo-first-order inactivation process, the activity after incubation with inhibitor (vi) varies with the inhibitor concentration (i) as described in the following equation: vi=v0·e^−kit, where v0 is the activity in absence of inhibitor, k is the second-order rate constant of inactivation, and t is the time.

uPA [2] = target: T2, uPA; type: biochemical; set-up: purchased Sigma-Aldrich; settings: apparent second order rate constant, 250 μM substrate
Protocol: as §3

FXa = FXa (Homo sapiens, UniProt P00742); experiment: Selectivity: FXa inhibition, chromogenic substrate S-2772; type: biochemical; settings: for inhibition at 250 µM: read-out: % inhibition at given concentration, FXa
FXa, sequence (P00742 235-488 limits assumed): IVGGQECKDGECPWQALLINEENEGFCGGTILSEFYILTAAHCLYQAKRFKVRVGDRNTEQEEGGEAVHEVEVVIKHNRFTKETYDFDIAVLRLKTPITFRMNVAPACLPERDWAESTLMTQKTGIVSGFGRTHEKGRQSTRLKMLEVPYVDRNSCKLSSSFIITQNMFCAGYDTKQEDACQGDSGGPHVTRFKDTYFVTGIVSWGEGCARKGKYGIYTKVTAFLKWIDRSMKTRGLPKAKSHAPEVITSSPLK
FXa, sequence (P00742 41-179 partner limits assumed): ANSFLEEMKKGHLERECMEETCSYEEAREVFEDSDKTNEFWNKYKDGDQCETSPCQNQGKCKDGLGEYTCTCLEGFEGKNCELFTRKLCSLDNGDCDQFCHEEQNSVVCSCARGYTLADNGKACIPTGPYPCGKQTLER
Protocol: as §1, §2

trypsin = target: T3, trypsin (Bos taurus, UniProt P00760); experiment: Selectivity: trypsin inhibition, chromogenic substrate BAPNA; type: biochemical; settings: 425 μM substrate, Tris pH 8.2
T3 sequence (P00760 24-246): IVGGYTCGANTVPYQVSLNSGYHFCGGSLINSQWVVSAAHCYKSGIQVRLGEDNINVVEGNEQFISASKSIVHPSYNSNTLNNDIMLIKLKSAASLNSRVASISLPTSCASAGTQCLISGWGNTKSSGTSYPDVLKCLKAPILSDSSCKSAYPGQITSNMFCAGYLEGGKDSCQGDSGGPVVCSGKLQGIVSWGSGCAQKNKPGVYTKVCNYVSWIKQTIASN
Protocol: as §1, §2

uPA [3] = target: T2, uPA; settings: Tamura et al. 2000; cited from earlier work
[4] = 15-min pre-incubation at 37° C, 250 μM S-2444, Tris pH 8.8, read-out: IC50 (nM) uPA
[5] = 580 μM substrate, Tris pH 7.4, read-out: IC50 (μM) Plasmin
[6] = 580 μM substrate, Tris pH 8.3, read-out: IC50 (μM) Thrombin
[7] = 522 μM substrate, Tris pH 8.3 with […] CaCl2, read-out: IC50 (μM) FXa

tPA, sequence (P00750 36-562, species assumed): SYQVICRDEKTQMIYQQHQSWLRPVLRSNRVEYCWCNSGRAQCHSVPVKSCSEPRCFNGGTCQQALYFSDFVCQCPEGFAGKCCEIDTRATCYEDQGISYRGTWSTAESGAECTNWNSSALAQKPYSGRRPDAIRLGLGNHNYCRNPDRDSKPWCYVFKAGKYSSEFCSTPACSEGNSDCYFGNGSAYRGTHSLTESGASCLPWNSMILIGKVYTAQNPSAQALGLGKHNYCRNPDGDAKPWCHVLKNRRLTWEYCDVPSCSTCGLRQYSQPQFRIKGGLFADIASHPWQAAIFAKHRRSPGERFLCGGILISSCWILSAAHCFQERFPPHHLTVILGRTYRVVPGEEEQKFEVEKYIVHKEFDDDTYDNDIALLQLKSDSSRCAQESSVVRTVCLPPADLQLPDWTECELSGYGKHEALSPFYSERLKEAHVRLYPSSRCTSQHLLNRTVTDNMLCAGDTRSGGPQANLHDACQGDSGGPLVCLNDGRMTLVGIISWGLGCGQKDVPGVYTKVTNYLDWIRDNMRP

Molecule	IC50 (tPA) [µM]	IC50 (plasmin; [5]) [µM]	IC50 (thrombin; [6]) [µM]	IC50 (FXa; [7]) [µM]	also measured
COC(=O)NC(Cc1ccc(NC(=N)N)cc1)P(=O)(Oc1ccccc1)Oc1ccccc1 (centres unmarked) [Compound 35a, Methyl 1-(diphenoxyphosphoryl)-2-(4-guanidinophenyl)ethylcarbamate]	23 ± 6	–	–	–	IC50 (plasmin): 12.8 ± 2 µM; IC50 (thrombin): 16.6 ± 2.3 µM; IC50 (uPA [1]; [4]): 3.1 ± 0.5 nM; kapp (M^−1 · s^−1) uPA (uPA [2]): 62000 M⁻¹ s⁻¹
CC(=O)Nc1ccc(OP(=O)(Oc2ccc(NC(C)=O)cc2)C(Cc2ccc(NC(=N)N)cc2)NC(=O)OCc2ccccc2)cc1 (centres unmarked) [Compound 9b, Di-(4-acetamidophenyl) 1-(benzyloxycarbonylamino)-2-[(4-guanidino)phenyl]ethanephosphonate]	7 ± 1	0.9 ± 0.2	0.39 ± 0.03	100 ± 24	IC50 (uPA [1]; [4]): 4.2 ± 0.9 nM
N=C(N)Nc1ccc(CC(NC(=O)c2ccccc2)P(=O)(Oc2ccccc2)Oc2ccccc2)cc1 (centres unmarked) [Compound 7c, Diphenyl 1-(benzoylamino)-2-(4-guanidinophenyl)-ethanephosphonate]	125	14 ± 1	–	–	IC50 (FXa): > 250 µM; IC50 (uPA [1]; pH 8.8, read-out: IC50 (nM) uPA): 114 ± 11 nM
CCC(NC(=O)OCc1ccccc1)(c1ccc(C(=N)N)cc1)P(=O)(Oc1ccccc1)Oc1ccccc1 (centres unmarked) [Compound 8c, Diphenyl 1-(N-benzyloxycarbonylamino)-1-(4-amidinophenyl)propanephosphonate]	68 ± 9	6.2 ± 0.4	17 ± 2	13.7 ± 1.3	IC50 (trypsin): 3.5 ± 0.2 µM
CCOC(=O)NC(Cc1ccc(NC(=N)N)cc1)P(=O)(Oc1ccccc1)Oc1ccccc1 (centres unmarked) [Compound 35c, Ethyl 1-(diphenoxyphosphoryl)-2-(4-guanidinophenyl)ethylcarbamate]	57 ± 14	16 ± 3	3.8 ± 0.2	–	IC50 (uPA [1]; [4]): 8 ± 3 nM; kapp (M^−1 · s^−1) uPA (uPA [2]): 40000 M⁻¹ s⁻¹
Diphenyl 1-(naphthalenesulfonylamino)-2-(4-guanidinophenyl)-ethanephosphonate [Compound 7e]	44 ± 10	1.2 ± 0.1	8.1 ± 0.8	27 ± 2	IC50 (trypsin): 0.28 ± 0.05 µM
N=C(N)Nc1ccc(CC(NC(=O)OCc2ccccc2)P(=O)(Oc2ccccc2)Oc2ccccc2)cc1 (centres unmarked) [Compound 7b, Diphenyl 1-(benzyloxycarbonylamino)-2-(4-guanidinophenyl)-ethanephosphonate]	12 ± 0.8	3 ± 0.6	2.4 ± 0.4	100 ± 20	–
CS(=O)(=O)NC(Cc1ccc(NC(=N)N)cc1)P(=O)(Oc1ccccc1)Oc1ccccc1 (centres unmarked) [Compound 7g, Diphenyl 1-(methylsulfonylamino)-2-(4-guanidinophenyl)-ethanephosphonate]	8 ± 2	11 ± 1	–	–	IC50 (thrombin): ~125 µM; IC50 (FXa): ~250 µM
CNC(=O)NC(Cc1ccc(NC(=N)N)cc1)P(=O)(Oc1ccccc1)Oc1ccccc1 (centres unmarked) [Compound 39a, Diphenyl 2-(4-guanidinophenyl)-1-(3-methylureido)ethylphosphonate]	–	–	–	–	IC50 (uPA [1]): 101000 ± 6800 nM
Cc1ccccc1S(=O)(=O)NC(Cc1ccc(NC(=N)N)cc1)P(=O)(Oc1ccccc1)Oc1ccccc1 (centres unmarked) [Compound 7d, Diphenyl 1-(o-toluenesulfonylamino)-2-(4-guanidinophenyl)-ethanephosphonate]	7.3 ± 0.5	17 ± 2	11.9 ± 1.7	–	% inhibition at given concentration, FXa (FXa; at 62 μM): 59% @; IC50 (trypsin): 0.17 ± 0.01 µM
N=C(N)Nc1ccc(CC(NC(=O)NCc2ccccc2)P(=O)(Oc2ccccc2)Oc2ccccc2)cc1 (centres unmarked) [Compound 39b, Diphenyl 1-(3-benzylureido)-2-(4-guanidinophenyl)ethylphosphonate]	–	–	–	–	IC50 (uPA [1]): 43900 ± 3900 nM
N=C(N)c1ccc(C(NC(=O)OCc2ccccc2)P(=O)(Oc2ccccc2)Oc2ccccc2)cc1 (centres unmarked) [Compound 8a, Diphenyl 1-(N-benzyloxycarbonylamino)-1-(4-amidinophenyl)methanephosphonate]	66 ± 7	3.6 ± 0.4	0.288 ± 0.006	6 ± 0.2	–
CC(=O)NC(Cc1ccc(NC(=N)N)cc1)P(=O)(Oc1ccccc1)Oc1ccccc1 (centres unmarked) [Compound 41, Diphenyl 1-acetamido-2-(4-guanidinophenyl)ethylphosphonate]	–	57 ± 1.3	32.2 ± 1.4	–	IC50 (uPA [1]): 9.9 ± 0.8 nM
CC(C)c1ccc(C(C)C)c(S(=O)(=O)NC(Cc2ccc(NC(=N)N)cc2)P(=O)(Oc2ccccc2)Oc2ccccc2)c1C(C)C (centres unmarked) [Compound 7f, Diphenyl 1-(2,3,6-tri-isopropylbenzenesulfonyl)amino-2-(4-guanidinophenyl)-ethanephosphonate]	16 ± 1	~125	–	20 ± 2	% inhibition at given concentration, Thrombin (thrombin; at 250 μM): 60% @; IC50 (trypsin): 5.6 ± 0.04 µM
N=C(N)c1ccc(CC(NC(=O)OCc2ccccc2)P(=O)(Oc2ccccc2)Oc2ccccc2)cc1 (centres unmarked) [Compound 8b, Diphenyl 1-(N-benzyloxycarbonylamino)-2-(4-amidinophenyl)ethanephosphonate]	4 ± 2	1.2 ± 0.1	20 ± 2	–	inhibition at 250 µM (FXa): 65%
N=C(N)Nc1ccc(CC(N)P(=O)(Oc2ccccc2)Oc2ccccc2)cc1 (centres unmarked) [Compound 34d, Diphenyl 1-amino-2-(4-guanidinophenyl)ethylphosphonate]	–	–	–	–	IC50 (uPA [1]; [4]): 1600 ± 130 nM
Z-D-Ser-Ala-Arginal	–	–	–	–	IC50 (uPA [3]): 0.019 µM; selectivity ratio toward tPA (uPA [3]): more than 130
CC(=O)Nc1ccc(OP(=O)(Oc2ccc(NC(C)=O)cc2)C(Cc2ccc(NC(=N)N)cc2)NS(C)(=O)=O)cc1 (centres unmarked) [Compound 9c, Di-(4-acetamidophenyl) 1-(methylsulfonylamino)-2-(4-guanidinophenyl)-ethanephosphonate]	3.7 ± 0.4	2 ± 0.4	2.35 ± 0.06	–	inhibition at 250 µM (FXa): 55%; IC50 (uPA [1]; [4]): 3.5 ± 0.5 nM
